Drawing on ChEMBL document CHEMBL3507680, “University of Dundee, Gates Library screen for HepG2 cell viability”, this text covers cytotoxicity for 71 compounds.

The nature of this data set: Human HepG2 cell viability assay in 384 well format. Set-up: dose 125 nL, time 70.5 hour; cytotoxicity at 70.5 h: concentration not given beside the values. The conditions noted are these: HepG2 cells, read-out: Inhibition. Type of data set: toxicity, cell-based.
As for `O=C(Cn1nc2c(cc1=O)CCCC2)NC(C(=O)O)c1ccccc1` (stereo unspecified), the cytotoxicity at 70.5 h was -12.2%.

On to `CCc1ncc(C(=O)N2CCCC(c3nccn3CCOC)C2)cn1` (stereo unspecified), for which the cytotoxicity at 70.5 h was -0.318%.

With `COc1ccc2c(c1)NC(=O)C2OC(=O)Cc1ccccc1C` (stereo unspecified), the cytotoxicity at 70.5 h worked out at 31.3%.

With `Cn1c(NC(=O)CNC(=O)C2CCCC2)nc2cc(Cl)ccc21`, the cytotoxicity at 70.5 h is -9.81%.

With `CC(C)c1nnc(CN2CC(n3cccn3)C2)o1`, the cytotoxicity at 70.5 h was -6.56%.

Consider `COCCNC(=O)CN1CCN(c2nc3cc(C)ccc3o2)CC1`, for which the cytotoxicity at 70.5 h is -1.86%.

As for `Cc1nnc(-c2cccc(C#N)c2)n1C1CCN(C2CC2)C1=O` (stereo unspecified), the cytotoxicity at 70.5 h was determined as 46%.

For the compound `COc1cccc(-n2c(C)cc(C(=O)NCCCC(N)=O)c2C)c1`, the cytotoxicity at 70.5 h is -10.3%.

For the compound `Cc1noc(C)c1CC(=O)NCCc1cccs1`, the cytotoxicity at 70.5 h turned out to be 7.71%.

Regarding `CN1C[C@H]2C[C@H](C(=O)Nc3cccnc3)[C@@H](C1)O2`, the cytotoxicity at 70.5 h was -11.1%.

For `CCc1noc(C(C)N(C)CC(=O)Nc2cccc(C)n2)n1` (stereo unspecified), the cytotoxicity at 70.5 h was -6.94%.

With `Cc1occc1C(=O)N1C[C@@H]2CCCO[C@@H]2[C@H](NC(=O)CC2CC2)C1`, the cytotoxicity at 70.5 h was -7.56%.

In the case of `COc1ncccc1CN1CCn2c(Cn3cncn3)cnc2C1`, the cytotoxicity at 70.5 h was determined as 20.3%.

Regarding `COc1ccccc1OCCNCc1c(C(C)C)nn(C)c1N(C)C`, the cytotoxicity at 70.5 h is 34.1%.

As to `Cc1nn(C)c(C)c1C1CCCN1c1ncnc2[nH]ccc12` (stereo unspecified), the cytotoxicity at 70.5 h is 0.0825%.

Consider `O=C(N1CCCO1)[C@@]12CCO[C@@H]1CCN(Cc1ccccn1)C2`, for which the cytotoxicity at 70.5 h was 2.18%.

With `COc1ccccc1CC(C)N(C)CCS(C)(=O)=O` (stereo unspecified), the cytotoxicity at 70.5 h was -14.1%.

Consider `Cc1nn(C)c(Oc2cccnc2)c1NC(=O)C1CCCO1` (stereo unspecified), for which the cytotoxicity at 70.5 h was -3.71%.

Consider `CCS(=O)(=O)c1ncc(CN(C)C)n1Cc1ccccc1`, for which the cytotoxicity at 70.5 h was -3.58%.

Turning to `O=C(c1cccnc1)N1CCCC2(COCCN(c3ccccc3)C2)C1` (stereo unspecified), the cytotoxicity at 70.5 h was -16%.

Turning to `CC(C)c1noc(C(C)N2CCN(CCCN3CCCC3=O)CC2)n1` (stereo unspecified), the cytotoxicity at 70.5 h was -0.928%.

On to `N#Cc1ccc(CNC(=O)NC2CCN(c3ncccn3)CC2)cc1`, for which the cytotoxicity at 70.5 h is -7.8%.

In the case of `CN(CC1CCCCO1)S(=O)(=O)c1cccc(C(=O)N2CCOCC2)c1` (stereo unspecified), the cytotoxicity at 70.5 h is -10.5%.

On to `N#Cc1c(-c2ccccc2)csc1N`, for which the cytotoxicity at 70.5 h was -22.3%.

As for `Cc1cc(N2CC[C@H](O)C2)n2nc(C)c(C)c2n1`, the cytotoxicity at 70.5 h was -1.97%.

With `COc1cccc(Cl)c1-c1cc(CN)ccc1F`, the cytotoxicity at 70.5 h is -13.8%.

Regarding `CCSc1nnc(N2CCN(c3ccccc3)CC2)s1`, the cytotoxicity at 70.5 h is 0.78%.

With `Cc1cccnc1CNCC1(O)CCCN(CC2CCCCC2)C1=O` (stereo unspecified), the cytotoxicity at 70.5 h was -7.77%.

On to `Cc1cccc(CN2C[C@@H]3CN(C(=O)c4cnccn4)C[C@@H]3C2=O)n1`, for which the cytotoxicity at 70.5 h was -0.986%.

As to `COc1ccc(Cl)c(-c2noc3ncn(CCC(=O)O)c(=O)c23)c1`, the cytotoxicity at 70.5 h was -20.8%.

Turning to `COCc1cc(N(Cc2ccsc2)C2CC2)n2ncnc2n1`, the cytotoxicity at 70.5 h was -6.87%.

On to `Cc1csc(CNC(=O)N2CCCC(c3nncn3C)C2)n1` (stereo unspecified), for which the cytotoxicity at 70.5 h is -4.57%.

With `Cc1ccc(CN2CC[C@H]3[C@H](CC(Cn4cccn4)N3C)C2)s1` (stereo partly specified), the cytotoxicity at 70.5 h came out at 15.9%.

As to `CN(Cc1ccc(Br)s1)Cn1nc(-c2ccccc2)oc1=O`, the cytotoxicity at 70.5 h is -9.53%.

Turning to `O=C(CCCc1ccccc1)Nc1cnc(N2CCOCC2)nc1`, the cytotoxicity at 70.5 h turned out to be 2.35%.

As for `COc1cccc(N2CCN(C(=O)C(C)Oc3ccccc3)CC2=O)c1` (stereo unspecified), the cytotoxicity at 70.5 h was found to be 20.9%.

Turning to `CCN(CC)CC1CN(Cc2ccc(C)s2)Cc2nccn2C1` (stereo unspecified), the cytotoxicity at 70.5 h was -7.85%.

As to `c1ccc(CN2CCC(NCCSc3cnn[nH]3)C2)cc1` (stereo unspecified), the cytotoxicity at 70.5 h was -3.66%.

For `CC1c2ncc(COCC3CC3)n2CCN1C` (stereo unspecified), the cytotoxicity at 70.5 h is -4.63%.

Turning to `CS(=O)(=O)c1cncnc1C1CCCN(C(=O)Nc2ccccc2F)C1` (stereo unspecified), the cytotoxicity at 70.5 h is -11.6%.

With `CCc1noc(C(C)N2CCN(Cc3nc(C)c(C)o3)CC2)n1` (stereo unspecified), the cytotoxicity at 70.5 h was 23.9%.

Regarding `Cc1cnn(CCC(=O)N2CCCC(c3cc(C)[nH]n3)C2)c1` (stereo unspecified), the cytotoxicity at 70.5 h amounted to 49%.

Regarding `CC(C)(C)SCCN1CC(=O)N2CC[C@@H](O)C[C@H]2C1=O`, the cytotoxicity at 70.5 h was -9.74%.

On to `CC(Oc1ccc2c(c1)OCO2)C(=O)N1CCC(N2CCCC2)CC1` (stereo unspecified), for which the cytotoxicity at 70.5 h was -4.56%.

As for `CN(Cc1ccc(F)cc1)C(=O)Cn1nc(-c2ccc(F)cc2)oc1=O`, the cytotoxicity at 70.5 h is 26.3%.

For `CN(C)C(=O)N1C[C@@H]2CC[C@H](C1)N(S(=O)(=O)c1cccnc1)C2`, the cytotoxicity at 70.5 h was -9.57%.

On to `Cc1noc(C)c1C(=O)N1Cc2ncn(C)c2C(COCC(C)C)C1` (stereo unspecified), for which the cytotoxicity at 70.5 h is -7%.

As to `c1cc(CNCC2Cn3nncc3CO2)co1` (stereo unspecified), the cytotoxicity at 70.5 h was -6.75%.

With `COCCN1CCO[C@H]2CN(Cc3cccc(C)n3)C[C@H]21`, the cytotoxicity at 70.5 h was -5.32%.

As for `Cc1cc(CNC(=O)NCCCC(=O)N2CCc3ccccc32)no1`, the cytotoxicity at 70.5 h is -2.16%.

`Cc1cc(C)c(CNC(=O)N2CCCC2C(N)=O)c(=O)[nH]1` (stereo unspecified): the cytotoxicity at 70.5 h was -4.33%.

On to `COc1cc(C(=O)N2CC3(CCNCC3)c3cc(Cl)ccc32)ccn1`, for which the cytotoxicity at 70.5 h was -6.87%.

Turning to `CCCc1nc(C(C)(C)NC(=O)c2ccnn2C)no1`, the cytotoxicity at 70.5 h was -2.57%.

Consider `COc1cccc(N2CCC(CNc3cc(C)nc4ncnn34)C2)c1` (stereo unspecified), for which the cytotoxicity at 70.5 h was -1.68%.

Take `O=C(Cc1ccc2c(c1)CCCC2)N[C@@H]1CC[C@@H](n2ccnc2)[C@@H]1O`: the cytotoxicity at 70.5 h was -3.88%.

As for `CC(Cc1cnccn1)NC(=O)COc1ccc(F)cc1F` (stereo unspecified), the cytotoxicity at 70.5 h came out at 3.61%.

Turning to `Cc1nc(CSCCC(=O)Nc2cccc(N3CCNC3=O)c2)cs1`, the cytotoxicity at 70.5 h was -0.129%.

Turning to `CC(=O)N1CCn2c(nnc2C2CCCCN2C(C)=O)C1` (stereo unspecified), the cytotoxicity at 70.5 h is -4.85%.

With `c1csc(N2CCN(Cc3cc4n(n3)CCNC4)CC2)n1`, the cytotoxicity at 70.5 h was found to be 1.93%.

Take `CCOCC(=O)NCC(C)(O)c1cc(C)oc1C` (stereo unspecified): the cytotoxicity at 70.5 h is -0.44%.

Consider `CCCC(=O)NCC1CCCN(Cc2cc(C)c(C)o2)C1` (stereo unspecified), for which the cytotoxicity at 70.5 h was 0.818%.

In the case of `CC(C)N1CCCC2(CCN(C(=O)CCCn3cncn3)C2)C1=O` (stereo unspecified), the cytotoxicity at 70.5 h was -4.98%.

`Cc1cc(C)c(C(=O)N2CCOC(CCN(C)C)C2)o1` (stereo unspecified): the cytotoxicity at 70.5 h was -14.2%.

Take `Cn1nc(C(=O)N2CCOCC2)cc1C(=O)Nc1cc(Cl)cc(Cl)c1`: the cytotoxicity at 70.5 h was -0.911%.

With `Cc1nn(C)c(N(C)C)c1CNCc1ccccc1Cn1cncn1`, the cytotoxicity at 70.5 h is -9.26%.

With `CCc1nc(CNC(C)(CO)C2CCCCC2)no1` (stereo unspecified), the cytotoxicity at 70.5 h is 15.6%.

For the compound `CCc1nc(CC(=O)NC(C#N)CC(C)C)cs1` (stereo unspecified), the cytotoxicity at 70.5 h is -0.177%.

In the case of `COc1cccc(N2Cc3nc(=O)n(C(C)C)n3C2=O)c1`, the cytotoxicity at 70.5 h is -13.3%.

As for `CC(Cn1ccnc1)NS(=O)(=O)c1ccc(F)c(Cl)c1` (stereo unspecified), the cytotoxicity at 70.5 h was -1.84%.

With `CS(=O)(=O)N1CC[C@]2(O)CCN(CCCC(=O)c3ccccc3)C[C@@H]2C1`, the cytotoxicity at 70.5 h was -2.45%.

Consider `CC(c1ncc(C(C)(C)C)o1)N1CCN(Cc2ccncc2)CC1` (stereo unspecified), for which the cytotoxicity at 70.5 h was -12.1%.
